Measurements: patent US20080317875A1, “Inhibitor of PI3 kinase-dependent inflammatory cytokine synthesis and method for inhibiting the same” (priority 2006, published 2008)

Assays:
[1] = system: IFN-γ; details: MLN cells from mice day 6 after infection, 30 mM LiCO3 in drinking water, vs control group; FIG. 8E
Description: The mesenteric lymph node (MLN) cells were isolated from the mesentery of the mice on day 12 of infection using a syringe needle. After cells were gently suspended, tissue fragments were removed by passing through a 100-μm mesh. Cells were then transferred to RPMI 1640 medium and culture was started at 37° C. Subsequently, the MLN cells were stimulated with bacterial lysate at 37° C. for 72 hr.
Meanwhile, MLN cells were isolated by the method as described in Example 3 from the mice 6 days after the oral infection. The isolated MLN cells were stimulated in vitro with C. rodentium lysate and IFN-γ produced was quantified by ELISA.

[2] = system: C. rodentium; details: B10.D2 mice, vs control group
Description: 200 μl of the culture (a volume equivalent to 2-3×10^8 colony-forming unit (cfu) per mouse) was infected into the mice by oral administration through the diet. Mice were sacrificed after continued housing for a designated period of time. A segment of the distal colon was excised at 4.5 cm from the rectum and the fecal pellets were removed by washing with PBS. After weight measurement and macroscopic observation of the tissue, homogenization was performed with a Potter Elvehjem homogenizer (digital homogenizer, As One). The homogenate was serially diluted with cold PBS and then seeded on MacConkey's agar plates (Difco Laboratories). The number of the colonies produced on the plate was counted to determine CFU per mouse to be used as an indicator of the degree of infection. […]
Wild-type B10.D2 mice were orally infected with C. rodentium by the method as described in Example 3. Three days after infection, the mice were divided into three groups, and one group was sacrificed and the weight of the colon cleared of lumps of feces was measured. […] Each group was housed for three more days, and six days after the infection, the mice in the experimental and control groups were sacrificed and the weight of the colon was measured. […]

[3] = system: bone marrow-derived dendritic cells (BMDCs); assay: IL-12p70 production in LPS-stimulated BMDCs after pretreatment with GSK3β inhibitor (ELISA); details: BMDCs pretreated 1 hr with 10 nM SB216763 or 5 mM LiCl, then 1 μg/ml LPS for 24 hr; FIG. 7B
Description: Bone marrow-derived dendritic cells (BMDCs) were isolated from wild-type mice by the method as described in Example 2. […] Meanwhile, after pretreatment for 1 hr with 10 nM GSK3β inhibitor SB216763 (Sigma) or 5 mM LiCl, the isolated BMDCs were stimulated with a 1 μg/ml LPS solution for 24 hr. The content of IL-12 in the culture supernatants after the stimulation was quantified using the ELISA kit specific to anti-mouse IL-12p70.

O=C([O-])[O-].[Li+].[Li+] [LiCO3, lithium carbonate]
expression level of IFN-γ in the lymph node cells [1]: decreased | symptom of bacterial infection in the colon (colon weight, macroscopic and histopathological observation) ([2]; 30 mM LiCO3 in drinking water from day 3 to day 6 after infection, FIG. 8A-C): relieved | number of infecting bacteria in the colon (cfu) ([2]; 30 mM LiCO3 in drinking water, day 6 after infection, p<0.05, FIG. 8D): significantly decreased

[Cl-].[Li+] [LiCl, lithium chloride]
production of IL-12 (IL-12p70 in culture supernatant) [3]: decrease

Cn1cc(C2=C(c3ccc(Cl)cc3Cl)C(=O)NC2=O)c2ccccc21 [SB216763, reference compound]
production of IL-12 (IL-12p70 in culture supernatant) [3]: decrease
